Data taken from patent US11197888B2, “LHRH-platinum conjugates for treating reproductive cancers” (priority 2015, dated 2021).

Test system: 4T1 tumors
Assay: In-vivo analysis of impact on 4T1 tumor growth in Balb/c mice
Set-up: species or system female Balb/c mice
Conditions: 4T1 tumors in mammary fat pad, carboplatin 5 mg/kg/wk or molar-equivalent Pt-LHRH, IP, 2 weeks, vs control
Procedure: In this experiment at least one eleven week old female Balb/c mice were utilized. The animals were allowed to acclimate for 1 week before experimentation and were maintained on a 12 hours light and dark cycle, and fed standard rodent chow (Prolab ISOPRO RMH 3000 Irradiated Lab Diet; Purina Mills International). Animal protocols were approved by the committee on animal research care and use at Eastern Kentucky University. 4T1 tumors were grown in the right abdominal mammary fat pad of the mice for 7 days. After tumor initiation (˜100 mm3) the mice were administered Pt-LHRH (carboplatin molar-equivalent dosage) through IP injection and compared to those treated with carboplatin (5 mg/kg/wk), no treatment, and LHRH plus carboplatin (unbound) controls for 2 weeks. Tumor growth was monitored daily and tumor volumes (mm3) were calculated using the formula: (width) 2×length/2, where width is the smaller of the two measurements. At two weeks the mice were sacrificed and tumor volume and weight were measured.

N.N.O=C([O-])C1(C(=O)[O-])CCC1.[Pt+2] [carboplatin]
tumor growth: no statistically significant reduction in tumor growth
